Assays:
THP1-Dual KO-TREX1 cells = assay: CellTiter-Glo cell viability in THP1 TREX1 KO cells; type: cell-based; conditions: highest dose, with 1 μM 5-aza-2′-deoxycytidine, five days
Protocol: THP1 Dual TREX1 KO cells were purchased from Invivogen. The THP1-Dual™ KO-TREX1 cells were cultured in RPMI 1640, 10% heat-inactivated fetal bovine serum, 25 mM HEPES, 10 μg/mL Blasticidin, and 100 μg/mL Zeocin. THP1-Dual™ KO-TREX1 cells were treated with a dose titration of test compound in the presence of 1 μM 5-aza-2′-deoxycytidine (Sigma, cat #189825). Type 1 Interferon and cell viability were assessed after five days of treatment.
Stock solution of test compound was prepared in DMSO followed by a three-fold dilution in DMSO. Additional 50× dilution was prepared in cell culture media for each dilution. 10 μL of diluted test compound was then added to a 384-well plate.
THP1-Dual™ KO-TREX1 cells were treated with 1 μM 5-aza-2′-deoxycytidine. THP1-Dual™ KO-TREX1 cells (50 μL) were added to each well of the 384-well plate containing test compound titration at 10,000 cells/well. Cells were incubated at 37° C., 5% CO2 in a humidified incubator for five days. […] Luminescence was detected on a plate reader according to manufacturer's instructions. […]
The remaining cells were assessed for cell viability by adding 30 μl of CellTiter-Glo (Promega, 09683) solution to each well, and placed on a shaker for 10 minutes at room temperature. Luminescence was detected on a plate reader, according to manufacturer's instructions. […]

PBMCs = assay: Decitabine-stimulated human PBMC assay, cell viability; type: cell-based; conditions: PBMCs with 10 μM decitabine, 5 days
Protocol: After 5 days, the plate was spun down at 100×G for 5 minutes. Supernatants (100 μL) was collected for interferon β (IFN-β) analysis using the MSD assay noted above, and any residual supernatant was stored at −80° C.

[1] = test system: interferon-stimulated gene (ISG) response; assay: In vivo decitabine challenge model; set-up: species or system C57BL/6 mice; conditions: stampidine 3, 15, 75 mg/kg i.p. daily with decitabine 5 mg/kg i.p., Day 0 to Day 4; spleen, liver, terminal colon
Protocol: Twenty 9-11 week old C57BL/6 mice were acclimated to the lab for at least 5 days. Stampidine was prepared in a 20% HP-b-CD in water solution for i.p. administration. Decitabine (Sigma) was dissolved in sterile PBS (pH 7.4) and dosed within 30 minutes of preparation of the solution. Doses of both stampidine and decitabine were administered i.p. once a day, every day from Day 0 to Day 4.
On Day 0, mice were split into four groups of five mice and given their first dose of decitabine (i.p., 5 mg/kg) and stampidine. Dosing groups were:
Decitabine and stampidine were administered daily from Day 0 to Day 4. All mice were euthanized 1 hour after the last dose administration on Day 4. Spleens, liver, and terminal colon were collected, along with plasma from each animal. The fold changes in interferon-stimulated gene (ISG) expression were calculated by first normalizing to GAPDH gene using the Delta CT method. The CT (gene of interest)−CT (reference gene) was calculated to generate a delta CT for all samples. The fold change was then calculated by taking the […](Delta CT(control)−Delta CT (experimental). The control in this example was the PBS control animal group. The Taqman duplex assay was used to determine levels of GAPDH v. IFIT2.

COC(=O)[C@H](C)N[P@](=O)(OC[C@@H]1C=C[C@H](n2cc(C)c(=O)[nH]c2=O)O1)Oc1ccc(Br)cc1 [Stampidine, methyl ((S)-(4-bromophenoxy)(((2S,5R)-5-(5-methyl-2,4-dioxo-3,4-dihydropyrimidin-1(2H)-yl)-2,5-dihydrofuran-2-yl)methoxy)phosphoryl)-L-alaninate]
reduction in cell viability (THP1-Dual KO-TREX1 cells): ~15%
cellular toxicity (PBMCs): without any cellular toxicity
change in ISG response [1]: showed the change in ISG response which was most prominent in the spleen tissue
